For one data set, the target named is T1, SpeG (Escherichia coli, UniProt P0A951).
T1 sequence (P0A951 1-186): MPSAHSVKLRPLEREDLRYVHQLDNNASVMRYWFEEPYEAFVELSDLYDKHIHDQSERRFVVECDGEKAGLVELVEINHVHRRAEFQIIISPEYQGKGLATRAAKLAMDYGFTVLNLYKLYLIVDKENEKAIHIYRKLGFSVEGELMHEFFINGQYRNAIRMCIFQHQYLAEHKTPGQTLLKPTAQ
Briefly: continuous spectrophotometric acetyltransferase assay. In kind it is biochemical.

The target in data set [1] is T2, spermidine/spermine acetyltransferase 1 (SAT1) (Homo sapiens, UniProt P21673). Briefly: continuous spectrophotometric acetyltransferase assay, […] spermidine as substrate. In kind it is biochemical.
Another data set deals with PA1472 (Pseudomonas aeruginosa, UniProt Q9I3P0).
Data set [2] has as its target T2, spermidine/spermine acetyltransferase 1 (SAT1).
Substrate in data set [3]: NCCCCNCCCN
Briefly: continuous spectrophotometric enzyme kinetics. In kind it is biochemical, Escherichia coli. Particulars: acetyl-CoA.

T2 sequence (P21673 whole entry): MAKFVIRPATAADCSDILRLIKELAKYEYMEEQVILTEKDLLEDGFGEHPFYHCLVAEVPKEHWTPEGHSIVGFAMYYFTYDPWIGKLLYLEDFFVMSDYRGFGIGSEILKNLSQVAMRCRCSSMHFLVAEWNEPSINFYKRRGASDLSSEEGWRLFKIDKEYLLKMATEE
PA1472, sequence (Q9I3P0 1-184): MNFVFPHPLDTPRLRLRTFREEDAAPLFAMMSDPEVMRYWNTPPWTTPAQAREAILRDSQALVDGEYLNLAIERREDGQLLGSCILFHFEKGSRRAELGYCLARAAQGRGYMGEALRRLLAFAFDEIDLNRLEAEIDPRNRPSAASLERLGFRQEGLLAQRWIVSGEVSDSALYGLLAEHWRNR

As for `N=C(N)c1ccc(/N=N/Nc2ccc(C(=N)N)cc2)cc1` [diminazene], the IC50 against SpeG is 26.2 ± 3.7 µM; in data set [1], 21 ± 0.6 µM. With `NCCCCN` [putrescine], the Km was found to be 30.7 ± 9.9 mM at PA1472 and 8.7 ± 2.43 mM in data set [2].

B1: SpeG (Escherichia coli K-12) (protein)
chain: MPSAHSVKLRPLEREDLRYVHQLDNNASVMRYWFEEPYEAFVELSDLYDKHIHDQSERRFVVECDGEKAGLVELVEINHVHRRAEFQIIISPEYQGKGLATRAAKLAMDYGFTVLNLYKLYLIVDKENEKAIHIYRKLGFSVEGELMHEFFINGQYRNAIRMCIFQHQYLAEHKTPGQTLLKPTAQ
Regarding B1, the K0.5 in data set [3] came to 590.1 ± 30.8 µM.

One may read the IC50 as the point on the concentration scale where inhibition reaches its midpoint. Lower therefore signals higher potency. One may read the Km as the substrate concentration at which the rate is half of its maximum.

Values taken from PMC10542159 (bioRxiv, 2023).
